Assay results as given in paper PMC11052790 (Clinical Pharmacokinetics, 2024).
Marks after values point to notes of the source that are not given here.

Tests used:
CYP3A4 = CYP3A4 activity time course with microdosed oral midazolam
CYP2C19 = CYP2C19 (Homo sapiens, UniProt P33261); details: after ritonavir discontinuation vs baseline
[1] = fifth day of ritonavir 100 mg bid vs before ritonavir; 8 healthy volunteers
[2] = with ketoconazole vs alone, previous trial EudraCT 2017-004453; cited from earlier work
[3] = healthy volunteers, 6 days of high-dose ritonavir 600 mg bid; cited from earlier work
[4] = Ritonavir plasma exposure during 5-day 100 mg bid therapy; assay type: in vivo, human

Chain of CYP2C19 (P33261 whole entry): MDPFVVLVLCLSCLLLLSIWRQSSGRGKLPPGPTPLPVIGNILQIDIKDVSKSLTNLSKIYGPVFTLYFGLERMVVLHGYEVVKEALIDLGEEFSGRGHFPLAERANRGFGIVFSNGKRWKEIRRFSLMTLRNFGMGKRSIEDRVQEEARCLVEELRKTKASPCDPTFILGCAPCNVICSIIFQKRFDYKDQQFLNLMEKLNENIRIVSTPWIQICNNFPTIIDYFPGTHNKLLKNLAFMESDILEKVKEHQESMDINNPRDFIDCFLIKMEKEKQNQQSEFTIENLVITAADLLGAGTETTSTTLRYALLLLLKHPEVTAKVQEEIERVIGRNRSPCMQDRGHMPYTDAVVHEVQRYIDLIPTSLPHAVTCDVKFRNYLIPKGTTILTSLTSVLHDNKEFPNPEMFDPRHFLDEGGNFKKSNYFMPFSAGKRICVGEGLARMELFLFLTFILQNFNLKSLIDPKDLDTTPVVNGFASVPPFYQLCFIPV

## Cc1ncc2n1-c1ccc(Cl)cc1C(c1ccccc1F)=NC2 [Midazolam, midazolam]
CYP3A4; from day 2 to day 5 of ritonavir treatment
  Midazolam AUC2–4 increase, times baseline values: 11.1–15.5 times baseline

## COc1ccc2[nH]c([S+]([O-])Cc3ncc(C)c(OC)c3C)nc2c1 (stereo not drawn) [Omeprazole, omeprazole]
CYP2C19
  Decrease of omeprazole AUC0–4: approximately 35%

## O=C(NC[C@H]1CN(c2ccc(N3CCOCC3=O)cc2)C(=O)O1)c1ccc(Cl)s1 [Rivaroxaban, rivaroxaban]
[1]
  Geometric mean ratio (GMR) AUC0–24: 1.87*
[2]
  AUCinf ratio: 2.37 ± 0.53
[3]
  Exposure (AUC) increase of rivaroxaban: 2.5 fold

## CC(C)c1nc(CN(C)C(=O)N[C@H](C(=O)N[C@@H](Cc2ccccc2)C[C@H](O)[C@H](Cc2ccccc2)NC(=O)OCc2cncs2)C(C)C)cs1 [ritonavir]
[4]; human, plasma, oral, 100 mg
  AUC(0-t): 4590 to 5330 ng·h/mL
[4]; human, plasma, oral, 100 mg, Cmax of ritonavir, remaining 4 days of 100 mg bid
  Cmax: 1780 to 2110 ng/mL
[4]; two days after the last ritonavir dose, LLOQ 10 ng/mL
  Ritonavir plasma concentrations: close to or below the LLOQ
CYP3A4; after a 5-day treatment course with ritonavir 100 mg bid
  Estimated time to full recovery of CYP3A4 activity: 10 to 12 days
